Three molecules from US10722515B2, “Dual CLK/CDK1 inhibitors for cancer treatment” (SRI INTERNATIONAL, priority 2016, dated 2020) can be followed below.

Each structure is given as a SMILES string. Bounds are passed on as bounds.

For experiment [1], the system named is MDM2 alternate splicing in Rh-18 cells. In words: Rh-18 MDM2 RT-PCR gel-based assay (orthogonal secondary assay). Type of experiment: cell-based. Particulars: 10 μM, 8 h. As for the experimental part: These hits were then subjected to a confirmatory assay in the Rh-18 MDM2 RT-PCR gel-based assay at a concentration of 10 μM.
Referring to FIG. 6, cells were exposed to 0.5% DMSO, 0.2 μM sudemycin D6 or […] CGP-74514A for 8 h. Total RNA was extracted by RNeasy Mini Kit (Qiagen). High capacity RNA-to-cDNA kit (Life technologies) was used to convert the RNA to cDNA.
Referring to FIG. 7, cells were exposed to 0.5% DMSO (lane 1), 1 μM sudemycin D6 (lane 2), 10 μM Compound 14 (lane 3), and 10 μM Compound 15 (lane 4) for 8 h. The total RNA was extracted by RNeasy Mini Kit (Qiagen). High capacity RNA-to-cDNA kit (Life technologies) was used to convert the RNA to cDNA. […] Ubiquitin transcripts (165 bp) in the same cells were used as a control (Fan et al. (2011) ACS Chem. Biol. 6: 582-9).

The next experiment deals with T1, CDK1/cyclinB(h) (Homo sapiens, UniProt P06493).
T1 construct: purchased Eurofins, Dundee, Scotland
In words: radiometric protein kinase assay, CDK1. Type of experiment: biochemical. Particulars: enzyme inhibition, ATP 45 μM. As for the experimental part:
(§1) Enzymatic biochemical activities were evaluated in radiometric protein kinase assays (Eurofins, Dundee, Scotland). Kinases are incubated with buffer, substrate and [γ-^33P]-ATP (specific activity approx. 500 cpm/pmol, concentration as required). The reaction is initiated by the addition of the MgATP mix. After incubation for 40 minutes at room temperature, the reaction is stopped by the addition of 3% phosphoric acid solution. 10 μL of the reaction is then spotted onto a P30 filtermat and washed three times for 5 minutes in 75 mM phosphoric acid and once in methanol prior to drying and scintillation counting.
(§2) All compounds are prepared to 50× final assay concentration in 100% DMSO. Positive control wells contain all components of the reaction with 2% DMSO. Blank wells contain all components of the reaction, with a reference inhibitor replacing the compound of interest. Each kinase is assigned a standard assay concentration of ATP within 20 μM of its apparent KM. Compounds were screened at 1 μM in duplicate or tested at 10 concentrations at half log dilution starting from 10 μM in singlicate. Dose response curves were fitted with four parameter logistic curve to obtain IC50 values. The average coefficient of variation (CV) of the conducted assay is 4.4%.

In the next experiment the target is T2, CDK6/cyclinD3(h) (Homo sapiens, UniProt Q00534).
T2 construct: purchased Eurofins, Dundee, Scotland
In words: radiometric protein kinase assay, CDK6. Type of experiment: biochemical. To be noted: enzyme inhibition, ATP 20 μM. The method, then: as §1, §2

Another experiment addresses T3, MEKK2(h) (Homo sapiens, UniProt Q9Y2U5).
T3 construct: purchased Eurofins, Dundee, Scotland
T3 sequence (Q9Y2U5 1-619): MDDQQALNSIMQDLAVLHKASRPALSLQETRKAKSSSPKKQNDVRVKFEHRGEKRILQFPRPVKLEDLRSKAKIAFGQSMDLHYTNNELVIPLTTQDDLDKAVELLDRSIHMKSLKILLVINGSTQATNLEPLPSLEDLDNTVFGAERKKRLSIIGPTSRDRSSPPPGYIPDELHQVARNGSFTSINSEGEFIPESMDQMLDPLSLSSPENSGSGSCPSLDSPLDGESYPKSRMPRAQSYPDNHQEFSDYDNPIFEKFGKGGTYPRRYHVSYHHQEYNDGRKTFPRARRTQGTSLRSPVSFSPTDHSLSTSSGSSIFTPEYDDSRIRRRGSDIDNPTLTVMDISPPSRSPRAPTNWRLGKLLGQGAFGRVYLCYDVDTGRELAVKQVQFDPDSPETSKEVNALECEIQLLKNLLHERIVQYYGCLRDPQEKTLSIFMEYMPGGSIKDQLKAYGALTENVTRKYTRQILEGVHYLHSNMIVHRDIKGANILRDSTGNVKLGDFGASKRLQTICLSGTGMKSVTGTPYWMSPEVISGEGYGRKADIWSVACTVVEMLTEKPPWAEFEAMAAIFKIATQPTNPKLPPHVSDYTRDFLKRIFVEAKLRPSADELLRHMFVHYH
In words: kinase profile, radiometric assay, MEKK2. Type of experiment: biochemical. The method, then: as §1, §2

The subject of experiment [2] is PI3 Kinase (p110β/p85α)(h). In words: kinase profile, non-radiometric HTRF assay, PI3 kinases. Type of experiment: biochemical, human. To be noted: at 1 μM.
The target of the next experiment is T4, CLK3(h) (Homo sapiens, UniProt P49761).
T4 construct: purchased Eurofins, Dundee, Scotland
In words: radiometric protein kinase assay, CLK3. Type of experiment: biochemical. Particulars: enzyme inhibition, radiometric, ATP 90 μM; read-out: IC50 (nM) CLK3. The method, then: as §1, §2

A further experiment addresses T5, B-Raf(h) (Homo sapiens, UniProt P15056).
T5 construct: purchased Eurofins, Dundee, Scotland
In words: kinase profile, radiometric assay, B-Raf. Type of experiment: biochemical. As for the experimental part:
as §1, §2

A further experiment concerns the target T6, CDK4/cyclinD3(h) (Homo sapiens, UniProt P11802).
T6 construct: purchased Eurofins, Dundee, Scotland
In words: radiometric protein kinase assay, CDK4. Type of experiment: biochemical. Particulars: enzyme inhibition, ATP 20 μM. As for the experimental part: as §1, §2

The target in another experiment is T7, Plk1(h) (Homo sapiens, UniProt P53350).
T7 construct: purchased Eurofins, Dundee, Scotland
In words: kinase profile, radiometric assay, Plk1. Type of experiment: biochemical. As for the experimental part:
as §1, §2

Another experiment deals with T8, JNK1α1(h) (Homo sapiens, UniProt P45983).
T8 construct: purchased Eurofins, Dundee, Scotland
In words: kinase profile, radiometric assay, JNK1α1. Type of experiment: biochemical. The method, then:
as §1, §2

The next experiment deals with 22 oncogenic kinases. In words: kinase profiling against 22 oncogenic kinases. Type of experiment: biochemical, human. To be noted: 1 μM in duplicate. As for the experimental part:
as §1, §2

Setting [3] is: first of three lines printed with this name (r24).
Where [4] appears, read: second of three lines with this name.
Where [5] appears, read: third of three lines printed with this name (r26).

T7 sequence (P53350 whole entry): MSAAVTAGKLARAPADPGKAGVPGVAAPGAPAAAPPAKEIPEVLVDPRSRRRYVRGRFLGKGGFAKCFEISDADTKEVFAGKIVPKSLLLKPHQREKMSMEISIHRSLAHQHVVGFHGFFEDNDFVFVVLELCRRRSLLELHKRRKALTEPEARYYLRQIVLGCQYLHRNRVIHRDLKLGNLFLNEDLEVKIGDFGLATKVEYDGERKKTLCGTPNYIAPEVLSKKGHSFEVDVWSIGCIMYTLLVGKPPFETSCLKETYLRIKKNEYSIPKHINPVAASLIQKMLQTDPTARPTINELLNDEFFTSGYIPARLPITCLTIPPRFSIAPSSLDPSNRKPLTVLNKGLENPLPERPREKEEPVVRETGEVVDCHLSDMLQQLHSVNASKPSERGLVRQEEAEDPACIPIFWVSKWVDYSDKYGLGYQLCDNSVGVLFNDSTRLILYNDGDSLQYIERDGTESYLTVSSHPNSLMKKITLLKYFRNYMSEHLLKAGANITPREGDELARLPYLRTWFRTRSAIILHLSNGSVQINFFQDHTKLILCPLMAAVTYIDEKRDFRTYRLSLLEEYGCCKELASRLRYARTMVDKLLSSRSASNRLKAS
T8 sequence (P45983 1-384 isoform P45983-2): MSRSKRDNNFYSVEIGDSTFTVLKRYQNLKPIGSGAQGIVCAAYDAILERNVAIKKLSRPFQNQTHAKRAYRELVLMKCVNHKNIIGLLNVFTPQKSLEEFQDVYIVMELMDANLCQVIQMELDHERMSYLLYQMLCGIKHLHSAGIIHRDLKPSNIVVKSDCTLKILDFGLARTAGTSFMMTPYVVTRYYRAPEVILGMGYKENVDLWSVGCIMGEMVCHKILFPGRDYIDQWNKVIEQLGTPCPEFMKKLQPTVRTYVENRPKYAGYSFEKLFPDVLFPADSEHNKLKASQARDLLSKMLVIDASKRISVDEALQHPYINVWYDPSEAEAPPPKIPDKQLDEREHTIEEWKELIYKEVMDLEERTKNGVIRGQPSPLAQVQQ
T5 sequence (P15056 whole entry): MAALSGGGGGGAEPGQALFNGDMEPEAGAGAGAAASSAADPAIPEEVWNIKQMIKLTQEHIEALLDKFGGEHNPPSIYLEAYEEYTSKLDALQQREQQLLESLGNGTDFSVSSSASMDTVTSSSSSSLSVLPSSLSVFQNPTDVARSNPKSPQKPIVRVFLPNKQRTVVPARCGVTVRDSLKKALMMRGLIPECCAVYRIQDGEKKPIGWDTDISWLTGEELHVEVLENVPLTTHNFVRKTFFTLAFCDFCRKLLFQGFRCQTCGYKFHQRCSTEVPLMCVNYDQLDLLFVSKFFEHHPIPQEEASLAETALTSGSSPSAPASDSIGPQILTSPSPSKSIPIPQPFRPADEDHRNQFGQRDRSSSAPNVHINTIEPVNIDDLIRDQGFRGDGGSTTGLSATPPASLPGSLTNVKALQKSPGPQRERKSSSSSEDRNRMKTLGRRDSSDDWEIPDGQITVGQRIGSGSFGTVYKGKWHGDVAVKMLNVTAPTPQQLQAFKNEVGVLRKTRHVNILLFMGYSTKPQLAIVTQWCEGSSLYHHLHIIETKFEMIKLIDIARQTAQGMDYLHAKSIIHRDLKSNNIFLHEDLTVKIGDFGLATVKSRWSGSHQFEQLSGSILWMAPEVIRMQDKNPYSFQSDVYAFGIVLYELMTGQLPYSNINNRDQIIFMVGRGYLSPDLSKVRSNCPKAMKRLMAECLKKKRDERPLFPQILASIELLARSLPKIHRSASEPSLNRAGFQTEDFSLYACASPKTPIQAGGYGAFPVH
T1 sequence (P06493 whole entry): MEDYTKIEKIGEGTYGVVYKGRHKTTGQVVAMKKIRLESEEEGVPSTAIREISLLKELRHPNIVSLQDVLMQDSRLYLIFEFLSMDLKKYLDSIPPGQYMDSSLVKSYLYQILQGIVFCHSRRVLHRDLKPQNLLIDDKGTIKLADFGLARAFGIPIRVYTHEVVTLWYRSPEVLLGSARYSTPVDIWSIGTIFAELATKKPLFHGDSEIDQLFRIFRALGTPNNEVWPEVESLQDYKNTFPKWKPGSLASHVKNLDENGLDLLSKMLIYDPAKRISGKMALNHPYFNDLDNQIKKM
T1 sequence (P14635 whole entry partner): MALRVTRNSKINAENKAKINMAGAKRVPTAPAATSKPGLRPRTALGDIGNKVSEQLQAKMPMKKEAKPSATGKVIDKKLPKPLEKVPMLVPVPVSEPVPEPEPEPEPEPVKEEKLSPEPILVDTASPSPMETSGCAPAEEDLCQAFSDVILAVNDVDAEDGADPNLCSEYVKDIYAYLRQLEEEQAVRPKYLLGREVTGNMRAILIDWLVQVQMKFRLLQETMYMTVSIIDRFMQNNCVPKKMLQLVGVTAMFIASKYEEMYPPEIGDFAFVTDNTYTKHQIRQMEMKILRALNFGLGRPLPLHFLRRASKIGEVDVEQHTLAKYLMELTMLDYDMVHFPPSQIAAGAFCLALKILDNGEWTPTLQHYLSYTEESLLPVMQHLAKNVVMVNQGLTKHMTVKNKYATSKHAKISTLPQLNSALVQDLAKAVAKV
T4 sequence (P49761 whole entry): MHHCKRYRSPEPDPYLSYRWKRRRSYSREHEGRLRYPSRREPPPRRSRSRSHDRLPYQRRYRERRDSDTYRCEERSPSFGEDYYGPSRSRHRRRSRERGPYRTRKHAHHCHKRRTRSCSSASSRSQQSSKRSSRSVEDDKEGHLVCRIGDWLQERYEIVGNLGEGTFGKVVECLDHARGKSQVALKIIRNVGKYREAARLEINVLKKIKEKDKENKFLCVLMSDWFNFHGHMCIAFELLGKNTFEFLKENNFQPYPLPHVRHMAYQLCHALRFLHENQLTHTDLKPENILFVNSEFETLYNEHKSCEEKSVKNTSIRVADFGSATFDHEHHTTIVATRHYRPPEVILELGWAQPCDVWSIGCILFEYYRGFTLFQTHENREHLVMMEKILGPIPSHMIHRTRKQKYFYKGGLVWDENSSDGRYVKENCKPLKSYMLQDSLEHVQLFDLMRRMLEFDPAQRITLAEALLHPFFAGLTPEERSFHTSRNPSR
T6 sequence (P11802 whole entry): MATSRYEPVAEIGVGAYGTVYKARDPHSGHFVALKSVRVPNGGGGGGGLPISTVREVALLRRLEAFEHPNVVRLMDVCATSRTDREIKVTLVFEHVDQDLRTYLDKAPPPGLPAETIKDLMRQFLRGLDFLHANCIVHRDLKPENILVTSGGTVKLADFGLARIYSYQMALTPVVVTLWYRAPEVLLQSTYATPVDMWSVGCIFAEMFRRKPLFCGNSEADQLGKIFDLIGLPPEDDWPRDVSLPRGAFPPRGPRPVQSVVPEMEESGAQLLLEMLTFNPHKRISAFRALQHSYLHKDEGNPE
T6 sequence (P30281 whole entry partner): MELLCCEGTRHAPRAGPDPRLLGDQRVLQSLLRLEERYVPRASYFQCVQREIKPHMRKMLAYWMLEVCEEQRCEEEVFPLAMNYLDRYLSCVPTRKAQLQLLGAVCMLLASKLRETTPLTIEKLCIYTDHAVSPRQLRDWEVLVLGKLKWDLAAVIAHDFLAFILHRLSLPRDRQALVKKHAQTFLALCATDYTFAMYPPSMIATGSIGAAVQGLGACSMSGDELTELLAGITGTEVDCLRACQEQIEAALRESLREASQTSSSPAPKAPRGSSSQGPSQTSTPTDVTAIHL
T2 sequence (Q00534 whole entry): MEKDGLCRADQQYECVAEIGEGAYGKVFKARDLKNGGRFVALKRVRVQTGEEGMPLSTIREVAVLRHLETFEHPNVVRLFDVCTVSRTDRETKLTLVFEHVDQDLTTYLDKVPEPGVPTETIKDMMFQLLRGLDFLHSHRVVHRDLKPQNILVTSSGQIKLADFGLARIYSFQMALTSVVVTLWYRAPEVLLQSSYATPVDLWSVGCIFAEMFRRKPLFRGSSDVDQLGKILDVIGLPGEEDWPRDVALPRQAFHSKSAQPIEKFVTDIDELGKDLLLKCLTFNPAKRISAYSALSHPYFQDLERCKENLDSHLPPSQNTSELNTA
T2 sequence (P30281 whole entry partner): as the sequence (P30281 whole entry partner) above

With `CC(C)n1cnc2c(Nc3cc(N)cc(Cl)c3)nc(NC3CCCCC3N)nc21` (racemic) [Compound 14, Racemic N^6-Cis-(3-Amino-5-Chlorophenyl)-N^2-(2-Aminocyclohexyl)-9-Isopropyl-9H-Purine-2,6-Diamine], the “activity in the Rh-18 MDM2 RT-PCR gel-based confirmatory assay” value in experiment [1] was “confirmation”. Moreover, the IC50 against CDK1/cyclinB(h) was 973 nM; against CDK6/cyclinD3(h), > 1000 nM; at CLK3(h) it was > 1000 nM; at CDK4/cyclinD3(h) it was > 1000 nM. Besides, the inhibition at 1 µM against MEKK2(h) was 48%; on B-Raf(h), 5%; at Plk1(h), 60%; at JNK1α1(h), -6%. Also, the “% Inhibition PI3 Kinase (p110β/p85α)(h)” value in experiment [2] (setting [3]) is 4%; in experiment [2] (setting [4]), 0%; in experiment [2] (setting [5]) it was 1%.

Turning to `CC(C)n1cnc2c(Nc3cccc(Cl)c3)nc(N[C@H]3CCCC[C@@H]3N)nc21` [Compound 8, N^2-((1S,2S)-2-Aminocyclohexyl)-V-(3-Chlorophenyl)-9-Isopropyl-9H-Purine-2,6-Diamine], the “inhibition against the entire 22 diverse kinase panel” value with 22 oncogenic kinases was < 50%. Moreover, the inhibition at 1 µM on MEKK2(h) amounted to 47%; at B-Raf(h), 10%; on Plk1(h), 49%; against JNK1α1(h), 3%. Moreover, the entries for the “% Inhibition PI3 Kinase (p110β/p85α)(h)” value in [2] (setting [3]), in experiment [2] (setting [4]) and in [2] (setting [5]) were 5%, 2% and 2%, respectively.

`CC(C)n1cnc2c(Nc3cccc(Cl)c3)nc(N[C@@H]3CCCC[C@@H]3N)nc21` [Compound 9, N^2-((1R,2S)-2-Aminocyclohexyl)-N^6-(3-Chlorophenyl)-9-Isopropyl-9H-Purine-2,6-Diamine]: the inhibition at 1 µM against MEKK2(h) is 18%; on B-Raf(h) it was 21%; against Plk1(h), 9%; against JNK1α1(h), -1%. Further, the “% Inhibition PI3 Kinase (p110β/p85α)(h)” value in experiment [2] (setting [3]) was 4%; in [2] (setting [4]) it was 3%; in [2] (setting [5]), 5%.
